Here are results for four molecules from PMC5762686, “Structural ensemble-based docking simulation and biophysical studies discovered new inhibitors of Hsp90 N-terminal domain” (Scientific Reports, 2018).

One experiment concerns Hsp90. Further details: method as in PMID 16854066. The conditions noted are these: fluorescence polarization; cited from earlier work.
In experiment [1] the target is T1, Hsp90N (Homo sapiens, UniProt P07900).
T1 construct: contains DNA corresponding to residues 1–235 of human Hsp90α; made in house; host or cells: Escherichia coli BL21 (DE3)
The experiment is described as follows: Differential scanning fluorimetry (DSF), change of Tm. Format: binding. Conditions: apo Tm 44.4 °C, Hsp90N 2 μM, inhibitor 200 μM. Background: Differential scanning fluorimetry follows unfolding on heating by fluorescence.
Method: We also measured the change in the Tm value using differential scanning fluorimetry (DSF) to support direct binding (Fig. 2C).
DSF using a RT-PCR system (CFX connect, BioRad) assessed the stability of Hsp90N in the absence and presence of the hit compounds that were identified by 2D NMR[75]. Once Sypro-Orange (5×) was added into the solution of Hsp90N with each hit compound, the fluorescence from the dye was measured with excitation at 492 nm and emission at 610 nm in a temperature-dependent manner from 30 to 90 °C. The concentrations for Hsp90N and inhibitors were 2 and 200 μM, respectively. As a control, DMSO was mixed with the protein, and the fluorescence was measured with an identical procedure. The mid-point of the melting temperature, Tm, was deduced by calculating the temperature that maximizes the differential curve of the profiles.

Experiment [2] has as its system Hsp90N. Further details: method as in PMID 27899599. The conditions noted are these: PubChem BioAssay database AID: 712; cited from earlier work.
The test system of experiment [3] is Hsp90N. Further details: method as in PMID 19519743. The conditions noted are these: BindingDB; cited from earlier work.

The structures appear in SMILES notation. pIC50: −log10 of the molar value. Where two headings read alike, the source gives them in different places.

As a reminder, the pIC50 is −log10 of the IC50, conventionally taken in molar units. Turning to `CO[C@H]1/C=C\C=C(/C)C(=O)NC2=CC(=O)C(NCCN(C)C)=C(C[C@@H](C)C[C@H](OC)[C@H](O)[C@@H](C)/C=C(\C)[C@@H]1OC(N)=O)C2=O` [17-DMAG], in the experiment with Hsp90, the pIC50 is 7.21. For the same molecule, the “elevated Tm values” at Hsp90N [1] is 11.3. Turning to `Cc1cc(SCC(N)=O)nc(SCC(=O)c2ccccc2)n1` [ZINC00421600], the pIC50 in the experiment on Hsp90N [2] is 4.30. With `Oc1ccc(-c2n[nH]c(=S)n2-c2ccccc2)c(O)c1` [ZINC01264822], in the experiment on Hsp90N [3], the pIC50 is 9.30. For `CCc1cc(-c2n[nH]cc2-c2ccc3c(c2)OCO3)c(O)cc1O` [ZINC18130036], the pIC50 with Hsp90N [2] is 5.70.
